Reference: paper PMC314469, “Protein Interaction Networks by Proteome Peptide Scanning” (PLoS Biology, 2004)

Test system: Myo5 SH3 domain
Assay: SPOT analysis of cellulose-bound peptides (WISE), Myo5 SH3 domain (Dataset S4)
Assay type: binding, Saccharomyces cerevisiae
Details: for The normalized value in BLU units: Myo5 SH3 domain
[1] = SPOT analysis of cellulose-bound 14-mer yeast proteome peptides, normalized value, mean where the peptide was synthesized more than once
[2] = SPOT analysis of membrane-synthesized peptides probed with Myo5 SH3 domain, normalized value
[3] = SPOT analysis of membrane-bound peptides, normalized value (see methods)
[4] = SPOT analysis of cellulose-bound peptides probed with Myo5 SH3 domain, normalized value

Sequence | The normalized value in BLU units [1] | The normalized value in BLU units [3] | further results
TAWDMVPPYSPLSE | 126.6 BLU |  | 
TDLFKPLPEPPTEL |  |  | The normalized value in BLU units (SPOT analysis, Myo5 SH3) [2]: 23.4 BLU
TDLGKDIPFFPSSE |  | 146.5 BLU | 
TDTTKVTPIVPVPI |  |  | The normalized value in BLU units (SPOT analysis, Myo5 SH3) [2]: 48.0 BLU
TEDGFVIPALPAAV | 290.4 BLU |  | 
TEEILPTPVQPGGH | 121.0 BLU |  | 
TEFSRPIPPTPSGF |  | 163.0 BLU | 
TEGKYAPPSQPSMA |  |  | The normalized value in BLU units (SPOT analysis, Myo5 SH3) [4]: 222.8 BLU
TEIYKLEPREPQVD |  | 29.1 BLU | 
TELLKTLPFYPTPS | 77.3 BLU |  | 
TELLRIIPEMPKDL |  | 228.1 BLU | 
TELNLSCPNVPGKP | 227.7 BLU |  | 
TEVWRKVPMKPIFE |  |  | The normalized value in BLU units (SPOT analysis, Myo5 SH3) [2]: 242.9 BLU
TFRDMDLPQHPVIH |  |  | The normalized value in BLU units (SPOT analysis, Myo5 SH3) [4]: 188.2 BLU
TFSIYSIPSKPGEC |  |  | The normalized value in BLU units (SPOT analysis, Myo5 SH3) [4]: 226.8 BLU
TGESRKAPLIPLLK |  |  | The normalized value in BLU units (SPOT analysis, Myo5 SH3) [2]: 214.2 BLU
TGGGRIVPGVPPGA |  |  | The normalized value in BLU units (SPOT analysis, Myo5 SH3) [2]: 118.4 BLU
TGKFRYMPFSPAGT |  |  | The normalized value in BLU units (SPOT analysis, Myo5 SH3) [2]: 555.5 BLU
TGKPRKTPRPPFPF | 1192.8 BLU |  | 
TGYPRYFPQPPVQR |  | 5858.1 BLU | 
TIEARVHPEPPNKP | 374.9 BLU |  | 
TILERLTPLVPNNL |  | 249.4 BLU | 
TINSRFYPPIPISE |  |  | The normalized value in BLU units (SPOT analysis, Myo5 SH3) [2]: 76.4 BLU
TKAKKEKPKPPKPI | 157.7 BLU |  | 

Sequence | The normalized value in BLU units [1] | The normalized value in BLU units [3] | further results
TKFTKPKPKQPVLP |  |  | The normalized value in BLU units (SPOT analysis, Myo5 SH3) [2]: 445.1 BLU
TKKRKLGPKAPNPL |  | 693.8 BLU | 
TKRQRGEPSEPQQD |  | 27.7 BLU | 
TKTDKSYPMCPVDA |  |  | The normalized value in BLU units (SPOT analysis, Myo5 SH3) [2]: 150.0 BLU
TLATLTEPKLPKSY | 18.0 BLU |  | 
TLDEKECPSVPPTV | 211.5 BLU |  | 
TLDEKNLPRLPTPF |  |  | The normalized value in BLU units (SPOT analysis, Myo5 SH3) [2]: 205.2 BLU
TLEWLLTPYTPGDD |  |  | The normalized value in BLU units (SPOT analysis, Myo5 SH3) [4]: 163.5 BLU
TLFRFIVPFNPYFS | 881.8 BLU |  | 
TLHELGVPITPIAF | 118.6 BLU |  | 
TLIEYMGPAPPKGS |  |  | The normalized value in BLU units (SPOT analysis, Myo5 SH3) [4]: 133.3 BLU
TLKKFVLPCLPRKN |  |  | The normalized value in BLU units (SPOT analysis, Myo5 SH3) [4]: 504.4 BLU
TLKKKKTPKKPIAA |  |  | The normalized value in BLU units (SPOT analysis, Myo5 SH3) [2]: 535.4 BLU
TLNDRQIPLSPDQM |  | 73.6 BLU | 
TLPPLSSPMNPNGH |  |  | The normalized value in BLU units (SPOT analysis, Myo5 SH3) [4]: 252.3 BLU
TLRSMIPPFTPQLD | 412.7 BLU |  | 
TMKNKPKPTPPSPP |  | 909.8 BLU | 
TNGPRYSPQNPRPF |  | 158.5 BLU | 
TNSVKATPVPPTLA |  | 168.0 BLU | 
TPINFVFPNLPLEH | 81.8 BLU |  | 
TPMDFPEPVGPLAI | 175.4 BLU |  | 
TPPPPPLPSVLSS |  |  | The normalized value in BLU units (SPOT analysis, Myo5 SH3) [4]: 25804 BLU
TPQSRFPPYSPLLP |  | 442.7 BLU | 
TPSNMGSPGSPVNV |  |  | The normalized value in BLU units (SPOT analysis, Myo5 SH3) [4]: 156.2 BLU

Sequence | The normalized value in BLU units [1] | The normalized value in BLU units [3] | further results
TPTHHHIPHIPNQN | 147.9 BLU |  | 
TPTPHPHPHTPHPH | 157.9 BLU |  | 
TPYQLLSPILPVLL | 287.1 BLU |  | 
TQMKRLKPVSPGLR |  | 1445.1 BLU | 
TQPVRKNPEAPARR |  | 232.1 BLU | 
TQSGRMGPSEPKHR | 455.6 BLU |  | 
TSCTKEKPTPPTTT | 118.4 BLU |  | 
TSGYKYFPQFPQLK |  |  | The normalized value in BLU units (SPOT analysis, Myo5 SH3) [2]: 234.6 BLU
TSISRISPQDPEAK |  |  | The normalized value in BLU units (SPOT analysis, Myo5 SH3) [2]: 194.2 BLU
TSNTKWTPITPSVI |  | 141.7 BLU | 
TSSLRKPPNGPSSV |  | 143.8 BLU | 
TSSSRRGPGRPRKD |  |  | The normalized value in BLU units (SPOT analysis, Myo5 SH3) [2]: 619.5 BLU
TSWARDNPSKPDIA |  | 81.6 BLU | 
TTKHKAPPPPPPTA |  |  | The normalized value in BLU units (SPOT analysis, Myo5 SH3) [2]: 1684.9 BLU
TTNSRLCPSSPSSS |  |  | The normalized value in BLU units (SPOT analysis, Myo5 SH3) [2]: 160.8 BLU
TTRKKKDPNAPKRA |  |  | The normalized value in BLU units (SPOT analysis, Myo5 SH3) [2]: 274.6 BLU
TTRRKKDPNAPKRR |  | 999.1 BLU | 
TTTIKNRPVPPPLP |  |  | The normalized value in BLU units (SPOT analysis, Myo5 SH3) [2]: 1868.9 BLU
TTTYKSRPDRPKPV |  | 309.3 BLU | 
TVCDRLIPTSPQKT |  | 127.7 BLU | 
TVRTRRRPPPPPIP |  |  | The normalized value in BLU units (SPOT analysis, Myo5 SH3) [2]: 46234.4 BLU
TWKMHLWPVSPPQL | 224.0 BLU |  | 
TYGFRVRPDFPVFG | 357.0 BLU |  | 
TYIWRYLPAPPVCI |  | 444.5 BLU | 
